Measured values taken from US20210379046A1, “Methods of Treating Diseases Using Kinase Modulators” (Memorial Sloan Kettering Cancer Center, priority 2018, published 2021).
“Also recorded” adds a separate entry of the source.

What was measured:
Assay type in all cases: cell-based, human
LC-2/ad cells = assay: Flow cytometry of cell surface HLA on LC-2/ad cells; settings: 72 hrs
Description: If adherent cells, they were seeded one day before treatment.

TPC1 cells = assay: Mass spectrometry of eluted HLA class I presented peptides, TPC1 cells
Description: After 72 hrs, cells were harvested, washed, lysed. The lysate was run through an activated Sepharose-CNBr column coupled to the W6/32 antibody to bind HLA-A,B,C from the cell. The peptides bound by those HLAs and captured on the column were then eluted and mass spectrometry was run on those peptides.
Immunopurification affinity columns were prepared as described previously (Bassani-Sternberg et al., 2015, Mol Cell Proteomics 14(3):658-673). In brief, 40 mg of Cyanogen bromide-activated-Sepharose® 4B (Sigma-Aldrich, Cat #C9142) was activated with 1 mM hydrochloric acid (Sigma-Aldrich, Cat #320331) for 30 min. Subsequently, 0.5 mg of W6/32 antibody (BioXCell, BE0079; RRID: AB 1107730) was coupled to sepharose in presence of binding buffer (150 mM sodium chloride, 50 mM sodium bicarbonate, pH 8.3; sodium chloride: Sigma-Aldrich, Cat #S9888, sodium bicarbonate: Sigma-Aldrich, Cat #56014) for at least 2 hours at room temperature. Sepharose was blocked for 1 h with glycine (Sigma-Aldrich, Cat #410225). Columns were equilibrated with PBS for 10 min. […]. Afterwards, cells were lysed in 1 ml 1% CHAPS (Sigma-Aldrich, Cat #C3023) in PBS, supplemented with 1 tablet of protease inhibitors (cOmplete, Cat #11836145001) for 1 hour at 4° C. This lysate was spun down for 1 hour at 20,000 g at 4° C. Supernatant was run over the affinity column through peristaltic pumps at 1 ml/min overnight at 4° C. Affinity columns were washed with PBS for 15 min, run dry, and HLA complexes subsequently eluted three times with 200 μl 1% trifluoracetic acid (TFA, Sigma/Aldrich, Cat #02031). For separation of HLA ligands from their HLA complexes tC18 columns (Sep-Pak tC18 1 cc VacCartridge, 100 mg Sorbent per Cartridge, 37-55 μm Particle Size, Waters, Cat #WAT036820) were prewashed with 80% acetonitrile (ACN, Sigma-Aldrich, Cat #34998) in 0.1% TFA and equilibrated with two washes of 0.1% TFA. Samples were loaded, washed again with 0.1% TFA and eluted in 400 μl 30% ACN in 0.1% TFA. Sample volume was reduced by vacuum centrifugation for mass spectrometry analysis.
Samples were analyzed by a high resolution/high accuracy LC-MS/MS (Lumos Fusion, Thermo Fisher). Peptides were desalted using ZipTips (Sigma Millipore, Cat. #ZTC18S008) according to manufactures instructions and concentrated using vacuum centrifugation prior to being separated using direct loading onto a packedin-emitter C18 column (75 um ID/12 cm, 3 μm particles, Nikkyo Technos Co., Ltd. Japan). The gradient was delivered at 300 nl/min increasing linear from 2% Buffer B (0.1% formic acid in 80% acetonitrile)/98% Buffer A (0.1% formic acid) to 30% Buffer B/70% Buffer A, over 70 minutes. MS and MS/MS were operated at resolutions of 60,000 and 30,000, respectively. Only charge states 1, 2 and 3 were allowed. 1.6 Th was chosen as the isolation window and the collision energy was set at 30%. For MS/MS, the maximum injection time was 100 ms with an AGC of 50,000.
Mass spectrometry data was processed using Byonic software (version 2.7.84, Protein Metrics, PaloAlto, Calif.) through a custom-built computer server equipped with 4 Intel Xeon E5-4620 8-core CPUs operating at 2.2 GHz, and 512 GB physical memory (Exxact Corporation, Freemont, Calif.). Mass accuracy for MS1 was set to 10 ppm and to 20 ppm for MS2, respectively. Digestion specificity was defined as unspecific and only precursors with charges 1, 2, and 3 and up to 2 kDa were allowed. Protein FDR was disabled to allow complete assessment of potential peptide identifications. Oxidization of methionine, N-terminal acetylation, phosphorylation of serine, threonine and tyrosine were set as variable modifications for all samples. All samples were searched against the UniProt Human Reviewed Database (20,349 entries, uniprot.org, downloaded June 2017). […]

[1] = tested on: pSTAT3, pSTAT1 in TPC1 cells; assay: Western blot of STAT phosphorylation in TPC1 cells; settings: TPC1, 10 nM AST487, 24 hrs
Description: Cells were seeded in a 60 mm dish or 6 well plates. After the appropriate time point, cells were harvested and lysed and protein was quantified by a Lowry assay (Bio-Rad DC Protein Assay; #5000116). Protein levels were normalized and run on SDS PAGE gels (Bio-Rad). Protein was transferred to a nitrocellulose membrane using semi-dry transfer. Membrane was blocked and incubated with respective antibodies. When needed, secondary antibodies with HRP were incubated for 1 hr. Enhanced chemiluminescent substrate for HRP enzymes was used to image protein levels (Thermo-Fischer; #34095).
Cells were seeded in a 60 mm dish or 6 well plates. After the appropriate time point, cells were harvested, lysed in RIPA buffer (Thermo Instruments) and protein concentration was quantified by a Lowry assay (using the Bio-Rad DC Protein Assay; #5000116 on a Spectramax device from Molecular Devices). Protein loading levels were equalized per lane and separated on SDS gels (Bio-Rad). Protein was transferred to a nitrocellulose membrance using semi-dry transfer (BioRad). Membranes were blocked with Omniblock (American Bio) and incubated with respected antibodies. When needed, secondary antibodies with HRP were incubated for 1 hr. Enhanced chemiluminescent substrate for HRP enzymes was used to image protein levels (Thermo-Fischer; #34095) on a ChemiDoc MP imager with Soft Max Pro software (Biorad).

CCN1CCN(Cc2ccc(NC(=O)Nc3ccc(Oc4cc(NC)ncn4)cc3)cc2C(F)(F)F)CC1 [AST487]
surface HLA (LC-2/ad cells): only small increases were seen; also recorded: increases in surface HLA
runs TEIPP peptide was found in (n = 3) (TPC1 cells; ALFSFVTAL (SEQ ID NO: 11)): 0
runs TEIPP peptide was found in (n = 3) (TPC1 cells; FLGPWPAAS (SEQ ID NO: 12)): 1
runs TEIPP peptide was found in (n = 3) (TPC1 cells; FLSELQYYL (SEQ ID NO: 13)): 0
runs TEIPP peptide was found in (n = 3) (TPC1 cells; FLYPFLSHL (SEQ ID NO: 14)): 0
runs TEIPP peptide was found in (n = 3) (TPC1 cells; ILEYLTAEV (SEQ ID NO: 15)): 0
runs TEIPP peptide was found in (n = 3) (TPC1 cells; LLALAAGLAV (SEQ ID NO: 16)): 0
runs TEIPP peptide was found in (n = 3) (TPC1 cells; LLLDVPTAAV (SEQ ID NO: 17)): 0
runs TEIPP peptide was found in (n = 3) (TPC1 cells; LLLSAEPVPA (SEQ ID NO: 18)): 0
runs TEIPP peptide was found in (n = 3) (TPC1 cells; LLWGRQLFA (SEQ ID NO: 19)): 0
runs TEIPP peptide was found in (n = 3) (TPC1 cells; LSEKLERI (SEQ ID NO: 20)): 0
runs TEIPP peptide was found in (n = 3) (TPC1 cells; LTLLGTLWGA (SEQ ID NO: 21)): 0
runs TEIPP peptide was found in (n = 3) (TPC1 cells; SVLWLGALGL (SEQ ID NO: 22)): 0
runs TEIPP peptide was found in (n = 3) (TPC1 cells; TLLGASLPA (SEQ ID NO: 23)): 0
new peptides (only peptides found in all three runs counted) (TPC1 cells; TPC1, 10 nM AST487 or 100 nM cabozantinib): 458
unique ligands presented (TPC1 cells; TPC1, 10 nM AST487 or 100 nM cabozantinib, three runs pooled, DMSO 4211): 5274
increase in unique peptides vs DMSO (TPC1 cells; TPC1, three runs pooled): 25%
unique HLA ligands detected in all 3 runs (TPC1 cells; TPC1, DMSO 195): 585
runs TEIPP peptide was found in (n = 3) (TPC1 cells; VIIKPLVWV (SEQ ID NO: 24)): 0
runs TEIPP peptide was found in (n = 3) (TPC1 cells; VLAVFIKAV (SEQ ID NO: 25)): 0
runs TEIPP peptide was found in (n = 3) (TPC1 cells; VLLDHLSLA (SEQ ID NO: 26)): 0
STAT3 phosphorylation [1]: increased significantly; also recorded: increased phosphorylation of STAT3 at 24 hrs
